Test results from article PMC11091976, “Shorter Peptide Nucleic Acid Probes Improve Affibody-Mediated Peptide Nucleic Acid-Based Pretargeting” (ACS Pharmacology & Translational Science, 2024).
pKd: −log10 of the molar value. Like-named read-outs stand apart in the source and are kept apart here.

Columns and labels:
[1] = test system: HP12; test: UV melting of PNA:PNA duplex with primary probe HP12; format: physicochemical; settings: UV 260 nm, 20-95 °C at 1 °C/min, 5 μM each probe, 10 mM phosphate buffer, 10 mM KCl, pH 7.4
Protocol: (§1) The melting temperatures of secondary probes after duplex formation with primary probes were also measured by monitoring the absorbance at 260 nm as a function of temperature (see Figure S23). All probe pairs had melting temperatures well above 37 °C (body temperature) and ranged from 51 °C for the HP6:HP19 pair with 6 complementary bases to 82 °C for the previously studied HP15:HP18 pair with 15 complementary bases (see Figure 3B and Table 2). […] This secondary structure is typically adopted by antiparallel and L-amino acid-modified PNA–PNA duplexes at neutral pH.[49]
(§2) Figure S23: Normalized temperature melting profiles from 20–95°C for different primary and secondary probe pairs. UV melting curves at 260 nm. (A) HP15 (15-mer) toward secondary 15-, 12- and 9-mers. (B) HP12 (12-mer) toward secondary 12-, 9-, 8-, 7- and 6-mers. (C) HP9 (9-mer) toward secondary 9-, 8-, 7- and 6-mers. (D) HP6 (6-mer) toward secondary 6-mer.
(§3) Concentrations of duplexes in A–D are 5 μM in 10 mM […] with 10 mM KCl at pH 7.4.
(§4) (also on this page, place not known: Fraction melted Fraction meltedFraction melted Fraction melted) […]
(§5) Supplementary Material and methods […]
(§6) Biophysical characterization of PNA:PNA duplexes using CD Spectroscopy and […]
(§7) Circular dichroism (CD) and UV melts of PNA:PNA duplexes were measured on a CD spectrometer (Applied Photophysics, Leatherhead, UK) with Peltier temperature control and an external temperature probe. RP-HPLC purified and lyophilized PNA probes were dissolved in 10 mM phosphate buffer with 10 mM KCl at pH 7.4. Samples contained both primary and complementary secondary PNA probes at a final concentration of 5 µM for each probe. These samples were initially heated to 95°C for five minutes, allowed to cool to room temperature, and then transferred to a quartz cuvette with a 1.0 cm path length. A temperature probe was inserted into the solution through the cuvette's rubber cap. […]
(§8) from 20°C to 95°C with a 1°C/min temperature gradient. Simultaneously, the UV absorbance at 260 nm was recorded as a function of temperature. Fraction melted data was calculated […]
(§9) Fraction melted = 1 ― UVds― UVss , where UVss and UVds are the UV absorbances at 95°C and 20°C, respectively. The melting temperature (Tm) was determined as the maximum of the first derivative of the melting curve and was computed using the Global 3 analysis software (Applied Photophysics, […]
(§10) CD spectra in the range of 200–300 nm were recorded for all hybridized PNA:PNA pairs at 20°C before and after the UV melting experiments. All CD spectra were baseline subtracted and presented as an average of five scans.

[2] = test system: Z-HP9; test: Multicycle kinetic SPR, immobilized Z-HP9; format: binding; settings: MCK SPR
Protocol: (§11) We utilized SPR on a Biacore T200 instrument (Cytiva) to examine how secondary PNA probes (6-mer HP19, 7-mer HP21, 8-mer HP20, and 9-mer HP16) bind to primary agents. These experiments were conducted using dextran-coated CM5 sensor chips and PBS-T buffer at pH 7.4. The ligands were immobilized through a standard EDC/NHS coupling method, and the chip surface was sealed with ethanolamine. A reference surface with no primary agent was also included.
Association and dissociation times were set at 700 and 1800 s, respectively, with regeneration accomplished through a 30 s injection of 10 mM glycine-HCl, pH 1.5.
(§12) All SPR experiments were performed in duplicate, and data analysis was conducted using the Biacore T200 Evaluation software version 2.0 with a 1:1 binding model.

[3] = test system: HP9; test: UV melting of PNA:PNA duplex with primary probe HP9; format: physicochemical; settings: UV 260 nm, 20-95 °C at 1 °C/min, 5 μM each probe, 10 mM phosphate buffer, 10 mM KCl, pH 7.4
Protocol: as §1, §2, §3, §4, §5, §6, §7, §8, §9, §10

[4] = Solubility of secondary probes in labeling buffer; format: physicochemical; settings: 0.2 M NH4Ac; for increase in solubility compared to the 15-mer HP18 / maximum soluble concentration: pH 5.5, 25 °C; for maximum soluble concentration: heated 95 °C 5 min, 18-h static incubation, centrifugation, UV 260 nm of supernatant, highest concentration with at least 95% still soluble, duplicates
Protocol: However, as we moved to shorter PNA oligomers, solubility saw a substantial, nonlinear increase. […] For example, at 25 °C, the maximum soluble concentration of HP17 (12-mer) was around 6 μM. […]
pH 5.5 at 25°C. Dilution series of HPLC-purified and lyophilized secondary probes (1, 3, 6, 9, 13, 26, 39, 52 and 65 µM) for […]
samples were heated at 95°C for five minutes and concentration of the soluble fraction was determined by UV absorption at 260 nm before (grey bars), and after (black bars) an 18-hour static incubation at 25°C. Duplicates were prepared of all samples and the data is presented as the mean ± SD. The maximum soluble concentration of each probe, indicated in panels A-E as a dotted line, was defined as the highest concentration at which at least 95% is still in the soluble fraction after an 18-hour incubation at 25°C. PNA-aggregates are temperature-labile, as exemplified in panel C for 82 µM HP17.
After an 18-hour incubation 25°C, 6 µM is left in the soluble fraction (left black bar) but heating the sample at 95 °C for five minutes completely redissolved HP17 aggregates into solution (right black bar).
(§13) (1 picture or pasted object on this page, not shown here)
Supplementary Material and methods
Solubility of secondary probes
HPLC-purified and freeze-dried secondary probes were resuspended in 10 mM NaAc, pH 3.5-3.6 and freeze-dried in smaller aliquots. The secondary probes were re-dissolved in 0.2 M NH4Ac, pH 5.5, and the samples were heated at 95 °C for five minutes to ensure complete dissolvement. Dilution series of secondary probes (1, 3, 6, 9, 13, 26, 39, 52 and 65 μM) for […]
NH4Ac, pH 5.5. The samples were then left for an 18-hour static incubation at 25 C, before being centrifugated at 21,100 x g for 5 minutes on a standard benchtop centrifuge (Eppendorf). The supernatants were transferred to fresh 1.5 mL Eppendorf-tubes, and the […]

[5] = target: Z-HP15; test: SPR off-rate screening (single-cycle kinetics), immobilized Z-HP15; format: binding; settings: primary probe HP15 (immobilized Z-HP15), 25 °C, PBS-T pH 7.4, 120 nM HP16/HP20 or 362 nM HP21/HP19, dissociation 150 min, 1:1 model, duplicates
Protocol: (§14) The stability of new pretargeting probe combinations was assessed using SPR, and duplex melting temperatures were measured with UV–vis spectroscopy. In SPR, a high concentration of the secondary probe was injected over immobilized primary agents, and the dissociation of the hybridized complexes was monitored over 150 min (see Figures 3A, S22, and Table 2).
as §11
(§15) For ranking the off-rate (kd) of the secondary probes, we employed single-cycle kinetics (SCK) at 25 °C with a flow rate of 50 μL/min. […] Secondary PNA probes were injected at various concentrations, and dissociation was monitored for 10,000 s. To regenerate the chip surface, we used two 30 s injections of 10 mM glycine-HCl, pH 1.5.
as §12
(§16) Figure S22: Representative SPR sensorgrams of the dissociation phase of HP16 (9-mer), HP20 (8-mer), HP21 (7-mer) and HP19 […]
(§17) After injection with the secondary probe
(§18) (120 nM of HP16 and HP20 or 362 nM of HP21 and HP19) the dissociation of the formed complex was followed for 150 minutes. All experiments were done in duplicates, and the data presented is double-referenced (reference channel and buffer injection are subtracted).
as §13

[6] = target: Z-HP9; test: SPR off-rate screening (single-cycle kinetics), immobilized Z-HP9; format: binding; settings: primary probe HP9 (immobilized Z-HP9), 25 °C, PBS-T pH 7.4, 120 nM HP16/HP20 or 362 nM HP21/HP19, dissociation 150 min, 1:1 model, duplicates
Protocol: as §14, §11, §15, §12, §16, §17, §18, §13

[7] = target: Z-HP12; test: SPR off-rate screening (single-cycle kinetics), immobilized Z-HP12; format: binding; settings: primary probe HP12 (immobilized Z-HP12), 25 °C, PBS-T pH 7.4, 120 nM HP16/HP20 or 362 nM HP21/HP19, dissociation 150 min, 1:1 model, duplicates
Protocol: as §14, §11, §15, §12, §16, §17, §18, §13

[8] = test system: HP6; test: UV melting of PNA:PNA duplex with primary probe HP6; format: physicochemical; settings: UV 260 nm, 20-95 °C at 1 °C/min, 5 μM each probe, 10 mM phosphate buffer, 10 mM KCl, pH 7.4
Protocol: as §1
Figure S23: Normalized temperature melting profiles from 20–95°C for different primary and secondary probe pairs. UV melting curves at 260 nm. […]
(§19) Circular dichroism (CD) and UV melts of PNA:PNA duplexes were measured on a CD spectrometer (Applied Photophysics, Leatherhead, UK) with Peltier temperature control and an external temperature probe. […]
as §8, §9

[9] = target: Z-HP15; settings: SPR, primary probe HP15; cited from earlier work
From the text: Table 2 Dissociation Rate Constants (kds) and Melting Temperatures (Tms) of the PNA Probe Duplexes ^a | column: kd (s^–1)

[10] = test system: HP15; test: UV melting of PNA:PNA duplex with primary probe HP15; format: physicochemical; settings: UV 260 nm, 20-95 °C at 1 °C/min, 5 μM each probe, 10 mM phosphate buffer, 10 mM KCl, pH 7.4
Protocol: as §1, §2, §3, §4, §5, §6, §19, §8, §9
CD spectra in the range of 200–300 nm were recorded for all hybridized PNA:PNA pairs at 20°C before and after the UV melting experiments. […]

Row | Substance | Tm [1] [°C] | ka ([2]; primary probe HP9 (Z-HP9 immobilized), 25 °C, 1.4-70 nM, 1:1 model, duplicates) | pKd ([2]; primary probe HP9, 25 °C) | kd ([2]; primary probe HP9, 25 °C) | pKd ([2]; primary probe HP9, 37 °C) | ka ([2]; primary probe HP9, 37 °C) | kd ([2]; primary probe HP9, 37 °C) | Tm [3] [°C] | increase in solubility compared to the 15-mer HP18 [4] | maximum soluble concentration [4] [µM] | kd [5] | kd [6] | kd [7] | Tm [8] [°C] | kd [9] | Tm [10] [°C] | solubility after 5 min at 95 °C ([4]; pH 5.5, 82 µM sample reheated at 95 °C for 5 min after 18 h at 25 °C, UV 260 nm)
1 | DOTA-AEEA-SS-acaccagg-EEY-NH2 [HP20, 8-mer secondary PNA probe with DOTA] | 66 | 1.2 × 10^5 M^–1 s^–1 | 9.26 | 6.6 × 10^–5 s^–1 | 9.10 | 2.2 × 10^5 M^–1 s^–1 | 1.7 × 10^–4 s^–1 | 64 | ~100 fold | 370 | 1.4 × 10^–5 s^–1 | 2.6 × 10^–5 s^–1 | 1.6 × 10^–5 s^–1 |  |  |  | 
2 | DOTA-AEEA-SS-accagg-EEY-NH2 [HP19, 6-mer secondary PNA probe with DOTA] | 56 |  |  |  |  |  |  | 55 |  |  | 5.0 × 10^–4 s^–1 | 2.8 × 10^–4 s^–1 | 6.2 × 10^–4 s^–1 | 51 |  |  | 
3 | DOTA-AEEA-SS-atcaacaccagg-EEY-NH2 [HP17, 12-mer secondary PNA probe with DOTA] | 75 |  |  |  |  |  |  |  | approximately 2 fold | 6 |  |  |  |  | <10^–5 ^b s^–1 | 78 | exceeded 82 μM
4 | DOTA-AEEA-SS-atcatcaacaccagg-EEY-NH2 [HP18, 15-mer secondary PNA probe with DOTA] |  |  |  |  |  |  |  |  |  | 3 |  |  |  |  | <10^–5 ^b s^–1 | 82 | 
5 | DOTA-AEEA-SS-caccagg-EEY-NH2 [HP21, 7-mer secondary PNA probe with DOTA] | 60 |  |  |  |  |  |  | 60 |  |  | 5.5 × 10^–5 s^–1 | 9.2 × 10^–5 s^–1 | 4.5 × 10^–5 s^–1 |  |  |  | 
